Reference: patent US20180092908A1, “SMALL MOLECULE OXIDIZERS OF PDI AND THEIR USE” (THE TRUSTEES OF COLUMBIA UNIVERSITY IN THE CITY OF NEW YORK, priority 2015, published 2018)
Read-outs that look alike come from different tables or passages of the source.

How the values were obtained:
[1] = molecular target: T1, recombinant catalytic a domain of human PDI A1 (PDIa) (Homo sapiens, UniProt P07237); test: Insulin aggregation assay (PDIa reductase activity); type: biochemical
T1 construct: made in house; host or cells: Escherichia coli BL21-Gold (DE3)

PDIa = molecular target: T2, PDIa (Homo sapiens, UniProt P07237); test: Size-exclusion buffer dialysis for reversibility of binding (fluorescence); conditions: PDIa 20 μM treated with LOC14 300 μM overnight, 10 kDa filter dialysis
T2 construct: made in house; host or cells: Escherichia coli BL21-Gold (DE3)
Description: Prior to dialysis, fluorescence emission spectra were recorded from 315 nm-550 nm wavelength with excitation at 280 nm on a Tecan Infinite 200 microplate reader. Fluorescence readings were carried out in a 384-well low volume, black bottom plate. Each well contained 40 μl of either LOC14 (300 μM), PDIa (20 μM), or PDIa (20 μM) treated with LOC14 (300 μM) overnight. All samples were dissolved in buffer B (20 mM sodium phosphate buffer pH 7.8). After recording the initial fluorescence spectra, samples were then transferred to Amicon Ultra 10 kDa size exclusion filter spin columns for dialysis. […] This step was repeated three more times with fresh buffer B. 40 μl of the collected samples from the flow-through and the spin-column chamber were transferred to a new 384-well plate and the emission spectra recorded as described above.
To investigate the mode of binding further and to determine whether the binding was reversible or irreversible, the fluorescence of the LOC14-PDIa complex was analyzed before and after buffer dialysis. […] If LOC14 binds irreversibly to the protein, then the same fluorescence spectrum of the LOC14-PDIa complex would be seen before and after dialysis in the dialysis chamber and none in the buffer compartment, assuming the fluorescence of LOC14 was not dramatically altered upon binding. […]

[2] = molecular target: T3, human catalytic PDI A1 a domain (PDIa) (Homo sapiens, UniProt P07237); test: Isothermal titration calorimetry (ITC) binding to PDIa
T3 construct: made in house; host or cells: Escherichia coli BL21-Gold (DE3)
T3 sequence (P07237 with tags, fused parts or gaps): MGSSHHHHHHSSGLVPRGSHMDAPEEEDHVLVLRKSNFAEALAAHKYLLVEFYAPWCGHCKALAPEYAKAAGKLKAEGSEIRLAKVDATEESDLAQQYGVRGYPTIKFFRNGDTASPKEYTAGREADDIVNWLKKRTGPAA

T1 sequence (P07237 with tags, fused parts or gaps): as above
T2 sequence (P07237 with tags, fused parts or gaps): as above

`O=C(C1CC1)N1CCN(Cn2sc3ccccc3c2=O)CC1` [LOC14, 2-((4-(cyclopropanecarbonyl)piperazin-1-yl)methyl)benzo[d]isothiazol-3(2H)-one] was tested. Which “Insulin Assay (either active or inactive)” value ([1]; Table 5) did it give?
Its value is “Active”.

What about the “PDI's enzymatic activity after dilution of pre-formed complex” value ([1]; compound 750 μM + PDIa 500 μM, diluted 100-fold) of the same compound?
The value was “complete recovery”.

What about the “binding to PDIa reversible or irreversible” value (PDIa) of the same compound?
The value was “reversible”.

And the “binding affinity to PDIa with 16F16 pre-treatment” value ([2]; 40 μM PDIa pre-treated overnight with 200 μM 16F16)?
The value was “reduced”.

What about the Kd ([2]; PDIa, Table 5, read-out: ITC Assay KD) of the same compound?
Its Kd is 113 nM.

What about the Kd ([2]; reduced PDIa 40 μM, compound 400 μM, 25° C., read-out: dissociation constant (Kd)) of the same compound?
Its Kd is 61.7 ± 5.6 nM.
